How the values were obtained:
P-gp = P-gp (Homo sapiens, UniProt P08183); test: Rho123 efflux assay in A549 taxol-resistant lung cancer cells (flow cytometry)
Experimental: A549 taxol-resistant lung cancer cells were seeded in 6 well-plates at a final concentration of 2×10^5 cells per well and cultured for 24 h at 37° C. in an atmosphere containing 5% CO2. […] Subsequently, 5 mg/mL Rho123 was added to each well and the wells were incubated for another 1 h at 37° C. At the end of the incubation, the accumulation of Rho123 was stopped by washing the cells five times with ice-cold PBS. After cell centrifugation, cell pellets were resuspended in 400 μL PBS. […] All data acquisition and analyses were performed with CellQuest (BD Biosciences, San Jose, Calif., USA) in triplicate in three independent experiments, and the results were shown as the mean of fluorescence intensity.
A549 taxol-resistant lung cancer cells were seeded in 6 well-plates at a final concentration of 2×10^5 cells per well and cultured for 24 h at 37° C. in an atmosphere containing 5% CO2. […] All data acquisition and analyses were performed with CellQuest (BD Biosciences, San Jose, Calif., USA) in triplicate in three independent experiments, and the results were shown as the mean of fluorescence intensity.

HEK293 kidney cells = test: MTT cytotoxicity assay, HEK293; type: cell-based; conditions: Homo sapiens, HEK293, 72 h, 3 days
Experimental: (§1) Cell cultures and cytotoxicity assays have been used. Celastrol was dissolved in DMSO at a final concentration of 100 mmol/L and stored at −20° C. Cytotoxicity was assessed using the 3-(4,5-dimethylthiazol-2-yl)-2,5-diphenyltetrazolium bromide assay. 4000 cells from HEK293 and HEK293/ABCB5 kidney cancer cells or MDA-MB-231 pcDNA and MDA-MB-231/BCRP breast cancer cells were seeded on 96-well plates per well. After overnight pre-incubation, the cells were exposed to different concentrations of celastrol (0.1-10 μmol/L) for 3 days. Subsequently, 10 μL of MTT reagents were added to each well and incubated at 37° C. for 4 hours followed by the addition of 100 μL solubilization buffer (10% SDS in 0.01 mol/L HCl) and overnight incubation. Absorbance at 585 nm was determined from each well the next day. The percentage of cell viability was calculated using the following formula: Cell viability (%)=Cells number treated/Cells number DMSO control×100. Data were obtained from three independent experiments.

[1] = test system: HEK293/ABCB5 kidney cells; test: MTT cytotoxicity assay, HEK293/ABCB5; type: cell-based
Experimental: as §1

[2] = test system: HCT116 p53-/- colon cancer cells; test: MTT cytotoxicity assay, HCT116 p53-/-; type: cell-based
Experimental: (§2) Cell cultures and cytotoxicity assays have been used. Celastrol was dissolved in DMSO at a final concentration of 100 mmol/L and stored at −20° C. Cytotoxicity was assessed using the 3-(4,5-dimethylthiazol-2-yl)-2,5-diphenyltetrazolium bromide assay. 4000 cells from HCT116 p53^+/+ or p53^−/− colon cancer cells and DLD-1 Bax-Bak^+/+ or Bax-Bak^−/− colon cancer cells were seeded on 96-well plates per well. […] Subsequently, 10 μL of MTT reagents were added to each well and incubated at 37° C. for 4 hours followed by the addition of 100 μL solubilization buffer (10% SDS in 0.01 mol/L HCl) and overnight incubation. […] The percentage of cell viability was calculated using the following formula: Cell viability (%)=Cells number treated/Cells number DMSO control×100. Data were obtained from three independent experiments.

[3] = test system: DLD-1 Bax-Bak+/+ colon cancer cells; test: MTT cytotoxicity assay, DLD-1 Bax-Bak+/+; type: cell-based; conditions: Homo sapiens, DLD-1, 72 h, read-out: IC50 DLD-1 Bax-Bak+/+ colon cancer cells
Experimental: as §2

[4] = test system: A549 (Lung) taxol sensitive cancer cells; test: MTT cytotoxicity assay, A549 taxol sensitive; type: cell-based; conditions: Homo sapiens, A549, 72 h, read-out: IC50 A549 (Lung) (Taxol sensitive)
Experimental: as §1, with “from A549 (lung), A2780 (ovary), HCT-8 (colon)” for “from HEK293”, “and MCF-7 (breast)” for “and HEK293/ABCB5 kidney cancer cells or MDA-MB-231 pcDNA and MDA-MB-231/BCRP breast”, “celastrol (0.039-100” for “celastrol (0.1-10”, “μmol/L) or taxol” for “μmol/L)”, “reagents was” for “reagents were”

[5] = test system: A549 (Lung) taxol resistant cancer cells; test: MTT cytotoxicity assay, A549 taxol resistant; type: cell-based, human
Experimental: as §1, with “from A549 (lung), A2780 (ovary), HCT-8 (colon)” for “from HEK293”, “and MCF-7 (breast)” for “and HEK293/ABCB5 kidney cancer cells or MDA-MB-231 pcDNA and MDA-MB-231/BCRP breast”, “celastrol (0.039-100” for “celastrol (0.1-10”, “μmol/L) or taxol” for “μmol/L)”, “reagents was” for “reagents were”

[6] = test system: A2780 (Ovary) taxol sensitive cancer cells; test: MTT cytotoxicity assay, A2780 taxol sensitive; type: cell-based; conditions: Homo sapiens, A2780, 72 h, read-out: IC50 A2780 (Ovary) (Taxol sensitive)
Experimental: as §1, with “from A549 (lung), A2780 (ovary), HCT-8 (colon)” for “from HEK293”, “and MCF-7 (breast)” for “and HEK293/ABCB5 kidney cancer cells or MDA-MB-231 pcDNA and MDA-MB-231/BCRP breast”, “celastrol (0.039-100” for “celastrol (0.1-10”, “μmol/L) or taxol” for “μmol/L)”, “reagents was” for “reagents were”

[7] = test system: HCT-8 (Colon) taxol sensitive cancer cells; test: MTT cytotoxicity assay, HCT-8 taxol sensitive; type: cell-based; conditions: Homo sapiens, HCT-8, 72 h, read-out: IC50 HCT-8 (Colon) (Taxol sensitive)
Experimental: as §1, with “from A549 (lung), A2780 (ovary), HCT-8 (colon)” for “from HEK293”, “and MCF-7 (breast)” for “and HEK293/ABCB5 kidney cancer cells or MDA-MB-231 pcDNA and MDA-MB-231/BCRP breast”, “celastrol (0.039-100” for “celastrol (0.1-10”, “μmol/L) or taxol” for “μmol/L)”, “reagents was” for “reagents were”

[8] = test system: MCF-7 (Breast) doxorubicin resistant cancer cells; test: MTT cytotoxicity assay, MCF-7 doxorubicin resistant; type: cell-based, human
Experimental: as §1, with “MCF-7 doxorubicin sensitive/resistant breast” for “HEK293 and HEK293/ABCB5 kidney”, “CEM doxorubicin sensitive/resistant leukemia” for “MDA-MB-231 pcDNA and MDA-MB-231/BCRP breast cancer”, “(0.039-100” for “(0.1-10”, “μmol/L) or doxorubicin” for “μmol/L)”

[9] = test system: CCRF-CEM (Leukemia) doxorubicin sensitive cells; test: MTT cytotoxicity assay, CCRF-CEM; type: cell-based; conditions: Homo sapiens, 72 h, 3 days
Experimental: as §1, with “MCF-7 doxorubicin sensitive/resistant breast” for “HEK293 and HEK293/ABCB5 kidney”, “CEM doxorubicin sensitive/resistant leukemia” for “MDA-MB-231 pcDNA and MDA-MB-231/BCRP breast cancer”, “(0.039-100” for “(0.1-10”, “μmol/L) or doxorubicin” for “μmol/L)”

P-gp, sequence (P08183 whole entry): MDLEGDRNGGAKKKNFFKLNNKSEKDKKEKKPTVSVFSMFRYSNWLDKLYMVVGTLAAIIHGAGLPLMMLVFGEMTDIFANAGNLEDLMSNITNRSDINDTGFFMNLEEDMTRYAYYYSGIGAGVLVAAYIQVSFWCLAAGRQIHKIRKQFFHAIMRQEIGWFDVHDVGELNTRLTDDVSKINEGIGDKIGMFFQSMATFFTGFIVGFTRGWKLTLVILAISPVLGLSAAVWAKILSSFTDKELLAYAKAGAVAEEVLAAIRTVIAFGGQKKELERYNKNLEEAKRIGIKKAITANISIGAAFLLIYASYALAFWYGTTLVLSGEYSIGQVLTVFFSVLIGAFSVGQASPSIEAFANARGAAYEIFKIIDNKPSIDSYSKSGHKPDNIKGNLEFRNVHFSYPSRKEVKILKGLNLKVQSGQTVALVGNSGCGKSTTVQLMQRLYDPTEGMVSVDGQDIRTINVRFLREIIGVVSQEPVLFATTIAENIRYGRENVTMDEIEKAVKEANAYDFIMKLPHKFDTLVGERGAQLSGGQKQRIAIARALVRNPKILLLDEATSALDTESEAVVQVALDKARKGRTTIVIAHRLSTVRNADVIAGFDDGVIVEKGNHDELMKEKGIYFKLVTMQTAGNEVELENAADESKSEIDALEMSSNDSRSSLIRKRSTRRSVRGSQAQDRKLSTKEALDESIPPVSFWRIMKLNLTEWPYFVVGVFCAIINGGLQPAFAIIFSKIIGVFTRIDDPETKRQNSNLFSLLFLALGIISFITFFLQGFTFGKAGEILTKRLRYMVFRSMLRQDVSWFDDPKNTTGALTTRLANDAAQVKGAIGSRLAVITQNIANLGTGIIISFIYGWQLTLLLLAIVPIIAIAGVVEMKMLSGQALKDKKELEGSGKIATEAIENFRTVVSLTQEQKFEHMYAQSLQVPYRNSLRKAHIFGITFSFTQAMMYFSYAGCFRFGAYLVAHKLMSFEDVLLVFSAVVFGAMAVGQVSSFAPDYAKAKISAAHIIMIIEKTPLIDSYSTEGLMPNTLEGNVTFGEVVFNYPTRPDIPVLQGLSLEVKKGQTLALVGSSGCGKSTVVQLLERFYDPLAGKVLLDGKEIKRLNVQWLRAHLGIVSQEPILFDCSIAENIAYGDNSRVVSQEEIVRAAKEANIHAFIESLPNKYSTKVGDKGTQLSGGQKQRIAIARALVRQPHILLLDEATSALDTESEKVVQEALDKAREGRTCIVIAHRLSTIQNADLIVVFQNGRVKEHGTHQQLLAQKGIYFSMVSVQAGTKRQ

CC1=C(O)C(=O)C=C2C1=CC=C1[C@@]2(C)CC[C@@]2(C)[C@@H]3C[C@](C)(C(=O)O)CC[C@]3(C)CC[C@]12C [Celastrol, celastrol]
P-gp activity / Rho123 accumulation (Example 2) (P-gp): inhibited the P-gp activity dose-dependently | P-gp activity / Rho123 accumulation (Example 9) (P-gp): inhibited the P-gp activity dose-dependently | IC50 (HEK293 kidney cells): 3.08 µM | IC50 ([1]; Homo sapiens, HEK293, 72 h, MTT, 3 days): 3.45 µM | Resistant Factor ([1]; IC50 HEK293/ABCB5 divided by IC50 HEK293): 1.12 | IC50 ([2]; Homo sapiens, HCT-116, 72 h, read-out: IC50 HCT116 p53-/- colon cancer cells): 484 nM | Resistant Factor ([2]; IC50 HCT116 p53-/- divided by IC50 HCT116 p53+/+): 0.58 | IC50 [3]: 575 nM | IC50 [4]: 2400 nM | Resistant Factor ([5]; A549 taxol resistant versus taxol sensitive): 0.42 | IC50 ([5]; Homo sapiens, A549, 72 h, read-out: IC50 A549 (Lung) (Taxol resistant)): 1000 nM | IC50 [6]: 902 nM | IC50 [7]: 937 nM | IC50 ([8]; Homo sapiens, MCF7, 72 h, read-out: IC50 MCF-7 (Breast) (Doxorubicin resistant)): 950 nM | Resistant Factor ([8]; MCF-7 doxorubicin resistant versus doxorubicin sensitive): 0.84 | IC50 [9]: 3.26 µM

— patent US10322097B2, “Treatment of subjects with multidrug-resistant cancer” (priority 2015, dated 2019)
